Experimental data: article doi:10.1101/2022.05.23.493001v4 (biorxiv, 2022)
pEC50: −log10 of the molar value.

Test system: STING in THP-1 cells (endogenous)
Assay: cells
Conditions: Homo sapiens, THP-1, 6 h, read-out: EC50 IFN-β THP-1

pEC50: 5.18
SMILES: CSc1c(Cl)ccc2c(=O)c3ccc(C(C)(C)C)cc3n(CC(=O)O)c12 [SNX281]
